Assays:
[1] = test system: P-gp; assay: Substrate activity at P-gp in human Caco2 cells assessed as efflux ratio of apparent permeability across basolateral to apical side over apical to basolateral side at 10 uM after 90 mins by HPLC with mass spectrometric method; assay type: ADME, cell-based; conditions: Caco-2
[2] = test system: P-gp; assay: Substrate activity at P-gp in human Caco2 cells assessed as apparent permeability across basolateral to apical side at 10 uM after 90 mins by HPLC with mass spectrometric method; assay type: ADME, cell-based; conditions: Caco-2
[3] = target: CYP2C9 (Homo sapiens, UniProt P11712); assay: Inhibition of human CYP2C9 at 10 uM preincubated for 10 mins with cofactor followed by mixture of enzyme-substrate addition by fluorescence assay relative to control; assay type: ADME
[4] = test system: Staphylococcus aureus; assay: Inhibition of TetK overexpressed in Staphylococcus aureus K2192 assessed as decrease in tetracycline MIC at 50 uM after 24 hrs by broth checkerboard method relative to control
[5] = test system: Staphylococcus aureus; assay: Inhibition of MsrA overexpressed in Staphylococcus aureus K2191 assessed as erythromycin MIC at 50 uM after 24 hrs by broth checkerboard method (reference value: 64 ug/ml)
[6] = target: T1, Fluoroquinolone resistance protein (Staphylococcus aureus) (UniProt A0A0C5K5S3); assay: Inhibition of MdeA overexpressed in Staphylococcus aureus Mupr-1 assessed as mupirocin MIC at 50 uM after 24 hrs by broth checkerboard method (reference value: 256 ug/ml)
T1 sequence (whole entry): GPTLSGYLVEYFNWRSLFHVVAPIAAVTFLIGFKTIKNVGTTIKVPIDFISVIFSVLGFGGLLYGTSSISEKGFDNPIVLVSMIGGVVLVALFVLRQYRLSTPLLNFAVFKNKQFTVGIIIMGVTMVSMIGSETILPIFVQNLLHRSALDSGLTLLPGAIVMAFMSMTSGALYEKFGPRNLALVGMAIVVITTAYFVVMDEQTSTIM

[7] = target: T1, Fluoroquinolone resistance protein (Staphylococcus aureus); assay: Inhibition of MdeA overexpressed in Staphylococcus aureus Mupr-1 assessed as decrease in mupirocin MIC at 50 uM after 24 hrs by broth checkerboard method relative to control
[8] = target: T2, ATP-dependent translocase ABCB1 (Homo sapiens, UniProt P08183); assay: Inhibition of P-gp in human LS180 cells at 50 uM after 90 mins by rhodamine123 cell exclusion method; assay type: cell-based; conditions: ls180, 1.5 h
[9] = test system: Staphylococcus aureus; assay: Inhibition of MsrA overexpressed in Staphylococcus aureus K2191 assessed as decrease in erythromycin MIC at 50 uM after 24 hrs by broth checkerboard method relative to control
[10] = target: T3, Quinolone resistance protein NorA (Staphylococcus aureus) (UniProt P0A0J7); assay: Inhibition of NorA overexpressed in Staphylococcus aureus SA1199B assessed as decrease in ciprofloxacin MIC at 50 uM after 24 hrs by broth checkerboard method relative to control
T3 sequence (whole entry): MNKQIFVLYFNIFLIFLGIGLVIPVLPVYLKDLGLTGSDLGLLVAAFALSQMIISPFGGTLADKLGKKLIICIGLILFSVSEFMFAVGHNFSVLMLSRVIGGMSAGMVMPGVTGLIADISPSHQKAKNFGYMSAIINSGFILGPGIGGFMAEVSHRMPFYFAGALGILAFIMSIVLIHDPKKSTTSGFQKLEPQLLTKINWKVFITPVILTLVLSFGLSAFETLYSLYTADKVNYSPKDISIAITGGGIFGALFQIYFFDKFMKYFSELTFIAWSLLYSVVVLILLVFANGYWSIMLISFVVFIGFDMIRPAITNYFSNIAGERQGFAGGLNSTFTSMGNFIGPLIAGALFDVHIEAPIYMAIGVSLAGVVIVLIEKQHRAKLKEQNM

[11] = test system: Staphylococcus aureus; assay: Inhibition of TetK overexpressed in Staphylococcus aureus K2192 assessed as tetracycline MIC at 50 uM after 24 hrs by broth checkerboard method (reference value: 32 ug/ml)
[12] = target: T3, Quinolone resistance protein NorA (Staphylococcus aureus); assay: Inhibition of NorA overexpressed in Staphylococcus aureus SA1199B assessed as ciprofloxacin MIC at 50 uM after 24 hrs by broth checkerboard method (reference value: 8 ug/ml)
[13] = target: T3, Quinolone resistance protein NorA (Staphylococcus aureus); assay: Inhibition of NorA overexpressed in Staphylococcus aureus SA1199B assessed as ciprofloxacin MIC at 25 uM after 24 hrs by broth checkerboard method (reference value: 8 ug/ml)
[14] = target: T1, Fluoroquinolone resistance protein (Staphylococcus aureus); assay: Inhibition of MdeA overexpressed in Staphylococcus aureus Mupr-1 assessed as decrease in mupirocin MIC at 25 uM after 24 hrs by broth checkerboard method relative to control
[15] = target: T1, Fluoroquinolone resistance protein (Staphylococcus aureus); assay: Inhibition of MdeA overexpressed in Staphylococcus aureus Mupr-1 assessed as mupirocin MIC at 25 uM after 24 hrs by broth checkerboard method (reference value: 256 ug/ml)
[16] = test system: Staphylococcus aureus; assay: Inhibition of TetK overexpressed in Staphylococcus aureus K2192 assessed as decrease in tetracycline MIC at 25 uM after 24 hrs by broth checkerboard method relative to control
[17] = test system: Staphylococcus aureus; assay: Inhibition of TetK overexpressed in Staphylococcus aureus K2192 assessed as tetracycline MIC at 25 uM after 24 hrs by broth checkerboard method (reference value: 32 ug/ml)
[18] = target: T3, Quinolone resistance protein NorA (Staphylococcus aureus); assay: Inhibition of NorA overexpressed in Staphylococcus aureus SA1199B assessed as decrease in ciprofloxacin MIC at 25 uM after 24 hrs by broth checkerboard method relative to control
[19] = test system: Staphylococcus aureus; assay: Inhibition of MsrA overexpressed in Staphylococcus aureus K2191 assessed as decrease in erythromycin MIC at 25 uM after 24 hrs by broth checkerboard method relative to control
[20] = test system: Staphylococcus aureus; assay: Inhibition of MsrA overexpressed in Staphylococcus aureus K2191 assessed as erythromycin MIC at 25 uM after 24 hrs by broth checkerboard method (reference value: 64 ug/ml)
[21] = target: T2, ATP-dependent translocase ABCB1; assay: Inhibition of P-gp in human LS180 cells after 90 mins by rhodamine123 cell exclusion method; assay type: cell-based
[22] = target: CYP2D6 (Homo sapiens, UniProt P10635); assay: Inhibition of human CYP2D6 at 10 uM preincubated for 10 mins with cofactor followed by mixture of enzyme-substrate addition by fluorescence assay relative to control; assay type: ADME
[23] = target: CYP3A4 (Homo sapiens, UniProt P08684); assay: Inhibition of human CYP3A4 at 10 uM preincubated for 10 mins with cofactor followed by mixture of enzyme-substrate addition by fluorescence assay relative to control; assay type: ADME
CYP3A4, sequence (P08684 whole entry): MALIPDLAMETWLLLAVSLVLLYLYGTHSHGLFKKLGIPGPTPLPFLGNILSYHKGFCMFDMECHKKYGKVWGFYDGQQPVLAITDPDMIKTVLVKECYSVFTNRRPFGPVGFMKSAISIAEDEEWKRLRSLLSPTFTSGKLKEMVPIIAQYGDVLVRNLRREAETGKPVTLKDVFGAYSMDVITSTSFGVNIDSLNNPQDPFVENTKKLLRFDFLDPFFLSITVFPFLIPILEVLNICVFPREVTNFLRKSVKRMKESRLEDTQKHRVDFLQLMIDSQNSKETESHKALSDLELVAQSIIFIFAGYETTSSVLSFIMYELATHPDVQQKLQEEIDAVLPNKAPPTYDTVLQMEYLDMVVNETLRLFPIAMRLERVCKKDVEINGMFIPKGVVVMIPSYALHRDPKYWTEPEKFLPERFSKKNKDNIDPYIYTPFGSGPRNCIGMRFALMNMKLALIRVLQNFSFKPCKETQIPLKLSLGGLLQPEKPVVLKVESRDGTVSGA

CYP2C9, sequence (P11712 whole entry): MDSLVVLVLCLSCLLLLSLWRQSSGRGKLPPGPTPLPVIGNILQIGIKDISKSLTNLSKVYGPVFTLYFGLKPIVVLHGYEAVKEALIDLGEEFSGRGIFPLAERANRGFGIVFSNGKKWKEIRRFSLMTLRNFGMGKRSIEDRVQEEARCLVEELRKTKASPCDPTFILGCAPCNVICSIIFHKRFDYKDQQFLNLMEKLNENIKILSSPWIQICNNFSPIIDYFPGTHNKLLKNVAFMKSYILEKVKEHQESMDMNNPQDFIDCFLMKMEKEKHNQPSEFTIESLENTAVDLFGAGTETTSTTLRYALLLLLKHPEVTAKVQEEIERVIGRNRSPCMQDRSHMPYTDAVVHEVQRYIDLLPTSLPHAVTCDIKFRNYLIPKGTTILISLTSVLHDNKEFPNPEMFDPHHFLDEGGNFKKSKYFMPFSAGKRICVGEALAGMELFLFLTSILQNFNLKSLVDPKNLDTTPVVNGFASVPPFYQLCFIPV
CYP2D6, sequence (P10635 whole entry): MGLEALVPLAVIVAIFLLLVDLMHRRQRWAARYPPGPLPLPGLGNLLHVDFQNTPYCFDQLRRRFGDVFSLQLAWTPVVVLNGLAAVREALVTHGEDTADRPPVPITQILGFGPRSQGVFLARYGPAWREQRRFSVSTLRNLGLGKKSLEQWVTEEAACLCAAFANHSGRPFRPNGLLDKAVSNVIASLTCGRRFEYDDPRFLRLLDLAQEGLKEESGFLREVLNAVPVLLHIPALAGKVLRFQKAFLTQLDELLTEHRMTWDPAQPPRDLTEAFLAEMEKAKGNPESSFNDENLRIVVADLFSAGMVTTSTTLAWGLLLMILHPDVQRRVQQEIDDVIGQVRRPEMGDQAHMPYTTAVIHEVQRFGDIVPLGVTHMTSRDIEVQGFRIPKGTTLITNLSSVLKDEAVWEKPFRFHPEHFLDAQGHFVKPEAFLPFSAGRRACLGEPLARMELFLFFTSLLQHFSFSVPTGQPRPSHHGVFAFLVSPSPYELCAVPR

C[C@H]1O[C@@H](O[C@H]2[C@@H](O)C[C@H](O[C@H]3[C@@H](O)C[C@H](O[C@H]4CC[C@@]5(C)[C@H](CC[C@@H]6[C@@H]5C[C@@H](O)[C@]5(C)[C@@H](C7=CC(=O)OC7)CC[C@]65O)C4)O[C@@H]3C)O[C@@H]2C)C[C@H](O)[C@@H]1O [DIGOXIN]
efflux ratio at 1.5 h, 10 µM [1]: 41.5
Papp B→A at 1.5 h, 10 µM [2]: 12.4 ×10⁻⁶ cm/s

Nc1ccc(S(=O)(=O)Nc2ccnn2-c2ccccc2)cc1 [SULFAPHENAZOLE]
inhibition at 10 µM [3]: 93.7%

CC(C)=CCc1c(O)ccc2ccc(=O)oc12 [OSTHENOL]
fold change (FC) [4]: 0
MIC [5]: 64 µg/mL
MIC [6]: 256 µg/mL
fold change (FC) [7]: 0
inhibition (INH) [8]: Not Active
fold change (FC) [9]: 0
fold change (FC) [10]: 4
MIC [11]: 32 µg/mL
MIC [12]: 2 µg/mL

O=C(/C=C/C=C/c1ccc2c(c1)OCO2)N1CCCCC1
MIC [13]: 4 µg/mL
fold change (FC) [14]: 0
MIC [15]: 256 µg/mL
fold change (FC) [16]: 0
MIC [17]: 32 µg/mL
fold change (FC) [18]: 2
fold change (FC) [19]: 0
MIC [20]: 64 µg/mL

C=CC(C)(C)c1cc2cc3c(cc2oc1=O)OC(C)(C)C=C3
MIC [13]: 2 µg/mL
fold change (FC) [14]: 0
inhibition (INH) [8]: Not Active
MIC [15]: 256 µg/mL
IC50 [21]: 15 µM
fold change (FC) [16]: 2
MIC [17]: 16 µg/mL
fold change (FC) [18]: 4
fold change (FC) [19]: 0
MIC [20]: 64 µg/mL

COc1c(C(=O)/C=C(\O)c2ccccc2)ccc2occc12 [PONGAMOL]
MIC [13]: 4 µg/mL
fold change (FC) [14]: 0
inhibition (INH) [8]: Not Active
MIC [15]: 256 µg/mL
IC50 [21]: 88 µM
fold change (FC) [16]: 0
MIC [17]: 32 µg/mL
fold change (FC) [18]: 2
fold change (FC) [19]: 0
MIC [20]: 64 µg/mL

C/C=C(\C)C(=O)OC1c2c(ccc3ccc(=O)oc23)OC(C)(C)C1OC(=O)/C(C)=C/C (stereo not given)
MIC [13]: 4 µg/mL
fold change (FC) [14]: 0
inhibition (INH) [8]: Not Active
MIC [15]: 256 µg/mL
IC50 [21]: 16 µM
fold change (FC) [16]: 0
MIC [17]: 32 µg/mL
fold change (FC) [18]: 2
fold change (FC) [19]: 0
MIC [20]: 64 µg/mL

CCC/C=C1\OC(=O)C2CC3CCC12C1(OC(=O)C2=C1CCCC2)C3CCC (stereo not given)
fold change (FC) [4]: 0
MIC [5]: 64 µg/mL
MIC [6]: 256 µg/mL
fold change (FC) [7]: 0
inhibition (INH) [8]: Not Active
fold change (FC) [9]: 0
fold change (FC) [10]: 0
MIC [11]: 32 µg/mL
MIC [12]: 8 µg/mL

CC(C)=CCc1c(O)cc(O)c2ccc(=O)oc12
MIC [13]: 4 µg/mL
fold change (FC) [14]: 0
inhibition (INH) [8]: Not Active
MIC [15]: 256 µg/mL
fold change (FC) [16]: 0
MIC [17]: 32 µg/mL
fold change (FC) [18]: 2
fold change (FC) [19]: 0
MIC [20]: 64 µg/mL

Fc1ccc([C@@H]2CCNC[C@H]2COc2ccc3c(c2)OCO3)cc1 [PAROXETINE]
inhibition at 10 µM [22]: 96.5%

CC(C)=CCOc1c2occc2cc2ccc(=O)oc12 [PENTOSALEN]
MIC [13]: 4 µg/mL
fold change (FC) [14]: 2
inhibition (INH) [8]: Not Active
MIC [15]: 128 µg/mL
IC50 [21]: 28 µM
fold change (FC) [16]: 0
MIC [17]: 32 µg/mL
fold change (FC) [18]: 2
fold change (FC) [19]: 0
MIC [20]: 64 µg/mL

COc1cc(/C=C/C(=O)CC(=O)/C=C/c2ccc(O)c(OC)c2)ccc1O [CURCUMIN]
MIC [13]: 1 µg/mL
fold change (FC) [14]: 0
inhibition (INH) [8]: Not Active
MIC [15]: 256 µg/mL
IC50 [21]: 62 µM
fold change (FC) [16]: 0
MIC [17]: 32 µg/mL
fold change (FC) [18]: 8
fold change (FC) [19]: 0
MIC [20]: 64 µg/mL

CC(=O)N1CCN(c2ccc(OCC3COC(Cn4ccnc4)(c4ccc(Cl)cc4Cl)O3)cc2)CC1 (stereo not given) [KETOCONAZOLE]
inhibition at 10 µM [23]: 95.2%

COc1c2ccoc2c(OCC=C(C)C)c2oc(=O)ccc12 [PHELLOPTERIN]
MIC [13]: 4 µg/mL
fold change (FC) [14]: 0
inhibition (INH) [8]: Not Active
MIC [15]: 256 µg/mL
IC50 [21]: 32 µM
fold change (FC) [16]: 0
MIC [17]: 32 µg/mL
fold change (FC) [18]: 2
fold change (FC) [19]: 2
MIC [20]: 32 µg/mL

CC(=O)Oc1cc(OC(C)=O)c2ccc(=O)oc2c1CC=C(C)C
MIC [13]: 4 µg/mL
fold change (FC) [14]: 0
inhibition (INH) [8]: Not Active
MIC [15]: 256 µg/mL
IC50 [21]: 44 µM
fold change (FC) [16]: 2
MIC [17]: 16 µg/mL
fold change (FC) [18]: 2
fold change (FC) [19]: 4
MIC [20]: 16 µg/mL

— ChEMBL document CHEMBL3596129, “Osthol and curcumin as inhibitors of human Pgp and multidrug efflux pumps of Staphylococcus aureus: reversing the resistance against frontline antibacterial drugs” (Medchemcomm, 2014)
